Measurements published in patent US20240270809A1, “ORAL GLP RECEPTOR AGONISTS” (priority 2020, published 2024).
Where two headings read alike, the source gives them in different places. Positions of bridges follow the written chain, without caps; N, C: chain ends. Non-standard residues stand in square brackets, D forms with d. Residues, ends and D or L forms follow the SMILES beside them. *: point of attachment. Malonyl(2,2-Me2,histaminyl) = CC(C)(C(=O)NCCc1cnc[nH]1)C(=O)*; Ala(1H-tetrazol-5-yl) = N[C@@H](Cc1nnn[nH]1)C(=O)O; αMePhe(2-F) = C[C@](N)(Cc1ccccc1F)C(=O)O; αMeL = CC(C)C[C@](C)(N)C(=O)O; Nle = CCCC[C@H](N)C(=O)O; Aib = CC(C)(N)C(=O)O

What was measured:
[1] = Stability of peptides in Fasted-State Simulated Intestinal Fluid (FaSSIF); format: in vitro ADME; conditions: FaSSIF with 10 mg/ml pancreatin; t=30 mins, 37° C., pH 6.5, 10 mg/ml pancreatin
Protocol: Stability of peptides was tested in Fasted-State Simulated Intestinal Fluid (FaSSIF) prepared according to manufacturer's protocol (Biorelevant, art.no. FFF01, pH 6.5). […] FaSSIF was pre-incubated for 15 min at 37° C. and spiked with test and reference item working solutions. Experiments were conducted in duplicate in a non-serial manner. The total incubation volume per replicate was 150 μl. Sampling time points for test items were 0, 0.5, 2, 5, 10, 15 and 30 min. All samples and calibration standards (prepared in FaSSIF) were precipitated by addition of 300 μl precipitant (ACN / 2% acetic acid / 0.2% HFBA, (precipitation reagent, PR)) containing internal standard (ISTD) to 150 μl sample. After incubation for 1 h at room temperature all samples were centrifuged for 10 min at 2,200×g (room temperature).

human GLP1 receptor = target: T1, human GLP1 receptor (Homo sapiens, UniProt P43220); assay: cAMP accumulation assay, functional agonism of human GLP1 receptor; format: cell-based; conditions: HEK cells infected with human GLP1 receptor BacMam virus, HTRF cAMP; for Emax: HEK293, read-out: Human GLP-1R agonist cAMP Emax; for EC50: read-out: Human GLP-1R agonist cAMP pEC50 (converted)
T1 construct: expressed in transfected cells; host or cells: HEK cells, BacMam virus transduction
T1 sequence (P43220 24-463): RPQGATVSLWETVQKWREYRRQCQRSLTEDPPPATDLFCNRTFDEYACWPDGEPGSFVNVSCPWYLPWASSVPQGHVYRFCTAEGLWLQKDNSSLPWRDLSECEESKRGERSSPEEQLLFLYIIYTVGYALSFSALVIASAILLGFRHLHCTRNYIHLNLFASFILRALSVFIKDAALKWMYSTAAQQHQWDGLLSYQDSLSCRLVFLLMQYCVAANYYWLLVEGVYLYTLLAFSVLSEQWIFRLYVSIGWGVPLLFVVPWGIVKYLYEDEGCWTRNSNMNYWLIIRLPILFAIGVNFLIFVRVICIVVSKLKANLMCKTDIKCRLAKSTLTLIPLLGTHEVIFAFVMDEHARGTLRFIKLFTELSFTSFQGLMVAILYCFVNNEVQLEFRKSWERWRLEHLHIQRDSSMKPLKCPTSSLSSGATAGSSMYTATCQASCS
Summary of the method: (§1)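 HEK cells transduced 24 h with human GLP1 or GLP2 receptor BacMam virus, then frozen until use. Agonist stimulation for 45 min at 37 °C in HBSS with 0.5 mM IBMX; cAMP measured by HTRF after lysis.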

mouse GLP2 receptor = target: T2, mouse GLP2 receptor (Mus musculus, UniProt Q5IXF8); assay: cAMP accumulation assay, functional agonism of mouse GLP2 receptor; format: cell-based
T2 construct: expressed in transfected cells; host or cells: HEK cells, transient transfection with GeneJuice
T2 sequence (Q5IXF8 1-512): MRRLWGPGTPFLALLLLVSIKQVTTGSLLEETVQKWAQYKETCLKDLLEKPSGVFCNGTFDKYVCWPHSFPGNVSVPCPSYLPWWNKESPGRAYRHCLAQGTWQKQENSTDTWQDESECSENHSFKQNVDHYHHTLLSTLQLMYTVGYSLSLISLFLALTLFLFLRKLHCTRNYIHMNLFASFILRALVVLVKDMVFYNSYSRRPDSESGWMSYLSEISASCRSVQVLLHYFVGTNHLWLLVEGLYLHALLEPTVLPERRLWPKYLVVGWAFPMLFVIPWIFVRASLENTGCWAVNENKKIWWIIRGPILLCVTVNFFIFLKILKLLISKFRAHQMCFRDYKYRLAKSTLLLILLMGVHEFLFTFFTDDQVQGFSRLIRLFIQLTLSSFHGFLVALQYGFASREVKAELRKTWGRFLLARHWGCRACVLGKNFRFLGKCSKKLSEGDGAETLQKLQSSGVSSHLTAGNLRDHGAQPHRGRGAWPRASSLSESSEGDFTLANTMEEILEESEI
Summary of the method: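 Transiently transfected HEK cells (24 h, frozen, 8000/well) in HBSS with 0.5 mM IBMX exposed to compound concentration series for 45 min at 37 °C. cAMP measured by HTRF after lysis and 1 h at RT; pEC50 from four-parameter concentration-response fit.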

human GLP2 receptor = target: T3, human GLP2 receptor (Homo sapiens, UniProt O95838); assay: cAMP accumulation assay, functional agonism of human GLP2 receptor; format: cell-based; conditions: HEK cells infected with human GLP2 receptor BacMam virus, HTRF cAMP; for Emax: HEK293, read-out: Human GLP-2R agonist cAMP Emax; for EC50: read-out: Human GLP-2R agonist cAMP pEC50 (converted)
T3 construct: expressed in transfected cells; host or cells: HEK cells, BacMam virus transduction
T3 sequence (O95838 1-553): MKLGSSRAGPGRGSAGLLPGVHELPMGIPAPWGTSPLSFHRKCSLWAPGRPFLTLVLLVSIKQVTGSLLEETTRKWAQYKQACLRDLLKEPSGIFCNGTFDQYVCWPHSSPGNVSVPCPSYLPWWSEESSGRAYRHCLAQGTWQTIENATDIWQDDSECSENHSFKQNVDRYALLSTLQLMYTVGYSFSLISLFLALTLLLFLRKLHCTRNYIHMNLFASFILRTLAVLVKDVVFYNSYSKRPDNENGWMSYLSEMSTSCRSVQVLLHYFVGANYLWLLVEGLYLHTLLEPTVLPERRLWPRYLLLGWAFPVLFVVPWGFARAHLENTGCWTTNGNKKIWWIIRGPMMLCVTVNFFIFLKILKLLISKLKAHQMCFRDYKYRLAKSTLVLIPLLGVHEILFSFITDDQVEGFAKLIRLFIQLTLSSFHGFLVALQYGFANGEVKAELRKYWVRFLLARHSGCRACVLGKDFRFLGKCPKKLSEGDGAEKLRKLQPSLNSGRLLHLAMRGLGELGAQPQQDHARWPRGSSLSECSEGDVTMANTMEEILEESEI
Summary of the method: as §1

mouse GLP1 receptor = target: T4, mouse GLP1 receptor (Mus musculus, UniProt O35659); assay: cAMP accumulation assay, functional agonism of mouse GLP1 receptor; format: cell-based
T4 construct: expressed in transfected cells; host or cells: HEK cells, transient transfection with GeneJuice
T4 sequence (O35659 22-463): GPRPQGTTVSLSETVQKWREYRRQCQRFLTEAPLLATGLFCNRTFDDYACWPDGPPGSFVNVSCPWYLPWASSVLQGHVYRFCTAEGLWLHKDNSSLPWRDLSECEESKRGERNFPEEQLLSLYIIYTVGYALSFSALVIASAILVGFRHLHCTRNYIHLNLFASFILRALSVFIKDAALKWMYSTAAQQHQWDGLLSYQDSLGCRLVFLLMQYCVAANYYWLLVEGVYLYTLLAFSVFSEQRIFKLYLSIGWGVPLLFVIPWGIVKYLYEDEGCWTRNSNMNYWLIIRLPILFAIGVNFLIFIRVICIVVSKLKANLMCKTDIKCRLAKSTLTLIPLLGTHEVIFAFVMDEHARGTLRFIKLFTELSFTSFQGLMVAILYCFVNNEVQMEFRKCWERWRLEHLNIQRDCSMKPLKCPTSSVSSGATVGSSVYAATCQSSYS

[2] = HEK293, HEK cells transiently transfected with mouse GLP2 receptor, HTRF cAMP, read-out: Mouse GLP-2R agonist cAMP Emax
[3] = HEK cells transiently transfected with mouse GLP2 receptor, HTRF cAMP, read-out: Mouse GLP-2R agonist cAMP pEC50 (converted)

Compound: CCCC[C@@H]1NC(=O)[C@H](CCC(=O)O)NC(=O)[C@@H](NC(=O)[C@H](CO)NC(=O)[C@H](Cc2ccccc2)NC(=O)[C@H](CO)NC(=O)CNC(=O)[C@H](Cc2nn[nH]n2)NC(=O)C(C)(C)C(=O)NCCc2c[nH]cn2)CCCCNC(=O)C[C@@H](C(=O)N[C@H](C(=O)N[C@@H](CC(C)C)C(=O)N[C@@H](CC(=O)O)C(=O)N[C@H]2CCC(=O)NCCCC[C@@H](C(=O)N[C@@H](CC(=O)O)C(=O)N[C@@H](Cc3ccccc3)C(=O)N[C@H](C(=O)N[C@@H](CC(N)=O)C(=O)N[C@@H](Cc3c[nH]c4ccccc34)C(=O)N[C@@H](CC(C)C)C(=O)N[C@H](C(=O)N[C@@H](CCC(N)=O)C(=O)N[C@H]3CCC(=O)NCCCC[C@@H](C(N)=O)NC(=O)[C@H]([C@@H](C)O)NC(=O)[C@H]([C@@H](C)CC)NC(=O)[C@H](CCCCN)NC3=O)[C@@H](C)CC)[C@@H](C)CC)NC(=O)[C@H](C)NC(=O)[C@H](C)NC(=O)[C@H](CCCCN)NC2=O)[C@@H](C)CC)NC(=O)[C@@H](Cc2ccccc2)NC1=O [Example 22] ({Malonyl(2,2-Me2,histaminyl)}-[Ala(1H-tetrazol-5-yl)]GSFSKE[Nle][dF]DILDEKAAKDFINWLIQEKITK-NH2; lactam 6-10, 14-18, 27-31 (inferred); C-terminus assumed)
- remaining at 0.5 h [1]: 6.8%
- Emax (human GLP1 receptor): 92.7%
- EC50 (human GLP1 receptor): 0.398 nM
- Emax (mouse GLP2 receptor; [2]): 94.5%
- EC50 (mouse GLP2 receptor; [3]): 1.58 nM
- Emax (human GLP2 receptor): 104%
- EC50 (human GLP2 receptor): 0.00794 nM

Compound: CCCC[C@H](NC(=O)[C@H](CCC(=O)O)NC(=O)[C@H](CC(=O)O)NC(=O)[C@H](CO)NC(=O)[C@H](Cc1ccccc1)NC(=O)[C@H](CO)NC(=O)[C@@H](C)NC(=O)[C@H](Cc1nn[nH]n1)NC(=O)C(C)(C)C(=O)NCCc1c[nH]cn1)C(=O)N[C@H](Cc1ccccc1)C(=O)N[C@H](C(=O)N[C@@](C)(CC(C)C)C(=O)N[C@@H](CC(C)C)C(=O)N[C@@H](CC(=O)O)C(=O)N[C@H]1CCC(=O)NCCCC[C@@H](C(=O)N[C@@H](CC(=O)O)C(=O)N[C@@H](Cc2ccccc2)C(=O)N[C@H](C(=O)N[C@H]2CCC(=O)NCCCC[C@@H](C(=O)N[C@H](C(=O)N[C@@H](CCCCN)C(=O)N[C@H](C(=O)N[C@H](C(=O)N[C@@H](Cc3ccccc3)C(N)=O)[C@@H](C)O)[C@@H](C)CC)[C@@H](C)O)NC(=O)[C@H]([C@@H](C)CC)NC(=O)[C@H](CC(C)C)NC(=O)[C@H](Cc3c[nH]c4ccccc34)NC2=O)[C@@H](C)CC)NC(=O)[C@H](C)NC(=O)[C@H](C)NC(=O)[C@H](CCCCN)NC1=O)[C@@H](C)O [Example 116] ({Malonyl(2,2-Me2,histaminyl)}-[Ala(1H-tetrazol-5-yl)][dA]SFSDE[Nle][dF]T[αMeL]LDEKAAKDFIEWLIKTKITF-NH2; lactam 14-18, 22-26 (inferred); C-terminus assumed)
- Emax (mouse GLP1 receptor; HEK293, HEK cells transiently transfected with mouse GLP1 receptor, HTRF cAMP, read-out: Mouse GLP-1R agonist cAMP Emax): 95.5%
- EC50 (mouse GLP1 receptor; HEK cells transiently transfected with mouse GLP1 receptor, HTRF cAMP, read-out: Mouse GLP-1R agonist cAMP pEC50 (converted)): 0.2 nM
- Emax (human GLP1 receptor): 94.4%
- EC50 (human GLP1 receptor): 0.316 nM
- Emax (mouse GLP2 receptor; [2]): 99.9%
- EC50 (mouse GLP2 receptor; [3]): 0.316 nM
- Emax (human GLP2 receptor): 103%
- EC50 (human GLP2 receptor): 0.00794 nM

Compound: CCCC[C@H](NC(=O)[C@H](CCC(=O)O)NC(=O)[C@H](CC(=O)O)NC(=O)[C@H](CO)NC(=O)[C@H](Cc1ccccc1)NC(=O)[C@H](CO)NC(=O)[C@@H](C)NC(=O)[C@H](Cc1nn[nH]n1)NC(=O)C(C)(C)C(=O)NCCc1c[nH]cn1)C(=O)N[C@H](Cc1ccccc1)C(=O)N[C@H](C(=O)N[C@@](C)(CC(C)C)C(=O)N[C@@H](CC(C)C)C(=O)N[C@@H](CC(=O)O)C(=O)N[C@H]1CCC(=O)NCCCC[C@@H](C(=O)N[C@@H](CC(=O)O)C(=O)N[C@@H](Cc2ccccc2)C(=O)N[C@H](C(=O)N[C@H]2CCC(=O)NCCCC[C@@H](C(=O)N[C@H](C(=O)N[C@@H](CCCCN)C(N)=O)[C@@H](C)O)NC(=O)[C@H]([C@@H](C)CC)NC(=O)[C@H](CC(C)C)NC(=O)[C@H](Cc3c[nH]c4ccccc34)NC2=O)[C@@H](C)CC)NC(=O)[C@H](C)NC(=O)[C@H](C)NC(=O)[C@H](CCCCN)NC1=O)[C@@H](C)O [Example 117] ({Malonyl(2,2-Me2,histaminyl)}-[Ala(1H-tetrazol-5-yl)][dA]SFSDE[Nle][dF]T[αMeL]LDEKAAKDFIEWLIKTK-NH2; lactam 14-18, 22-26; C-terminus assumed)
- EC50 (mouse GLP1 receptor): 0.0794 nM
- Emax (mouse GLP1 receptor; HEK293, read-out: Mouse GLP-1R agonist cAMP Emax): 96.9%
- Emax (human GLP1 receptor): 94.7%
- EC50 (human GLP1 receptor): 0.126 nM
- EC50 (mouse GLP2 receptor): 0.158 nM
- Emax (mouse GLP2 receptor; HEK293, read-out: Mouse GLP-2R agonist cAMP Emax): 99.3%
- Emax (human GLP2 receptor): 103%
- EC50 (human GLP2 receptor): 0.00316 nM

Compound: CCCC[C@@H]1NC(=O)[C@H](CCC(=O)O)NC(=O)[C@@H](NC(=O)[C@H](CO)NC(=O)[C@](C)(Cc2ccccc2F)NC(=O)[C@H](CO)NC(=O)[C@@H](C)NC(=O)[C@H](CC(=O)O)NC(=O)C(C)(C)NC(=O)[C@@H](N)Cc2c[nH]cn2)CCCCNC(=O)C[C@@H](C(=O)N[C@H](C(=O)N[C@@H](CC(C)C)C(=O)N[C@@H](CC(=O)O)C(=O)N[C@H]2CCC(=O)NCCCC[C@@H](C(=O)N[C@@H](CC(=O)O)C(=O)N[C@@H](Cc3ccccc3)C(=O)N[C@H](C(=O)N[C@@H](CC(N)=O)C(=O)N[C@@H](Cc3c[nH]c4ccccc34)C(=O)N[C@@H](CC(C)C)C(=O)N[C@H](C(=O)N[C@@H](CCC(N)=O)C(=O)N[C@H]3CCC(=O)NCCCC[C@@H](C(N)=O)NC(=O)[C@H]([C@@H](C)O)NC(=O)[C@H]([C@@H](C)CC)NC(=O)[C@H](CCCCN)NC3=O)[C@@H](C)CC)[C@@H](C)CC)NC(=O)[C@H](C)NC(=O)[C@H](C)NC(=O)[C@H](CCCCN)NC2=O)[C@@H](C)CC)NC(=O)[C@@H](Cc2ccccc2)NC1=O [Example 19] (H-H[Aib]D[dA]S[αMePhe(2-F)]SKE[Nle][dF]DILDEKAAKDFINWLIQEKITK-NH2; lactam 8-12, 16-20, 29-33 (inferred); C-terminus assumed)
- remaining at 0.5 h [1]: 12.2%
- Emax (human GLP1 receptor): 95.4%
- EC50 (human GLP1 receptor): 0.251 nM
- Emax (mouse GLP2 receptor; [2]): 101%
- EC50 (mouse GLP2 receptor; [3]): 0.794 nM
- Emax (human GLP2 receptor): 103%
- EC50 (human GLP2 receptor): 0.01 nM
